Columns and labels:
[1] = daily release or elution of Bimatoprost in vitro versus time (FIG. 8); format: physicochemical; conditions: four-hundred-day study
Source text: FIG. 8 is an exemplary graph of daily release or elution of a pharmaceutical or therapeutic agent in vitro versus time. […] The target release rate in this study on rabbits was 0.050 to 0.100 micrograms per day.

[2] = Bimatoprost sampled in the aqueous humor of dogs over time (FIG. 9); format: in vivo
Source text: FIG. 9 is an exemplary graph of a therapeutic agent delivered to the aqueous humor of an eye of canines versus time.
In this example, there was a low dose group of dogs (Grp 1), a mid-dose group of dogs (Grp 2), a high dose group of dogs (Grp 3), and a placebo group of dogs (Grp 4).

In the case of `CCNC(=O)CCC/C=C\C[C@@H]1[C@@H](/C=C/[C@@H](O)CCc2ccccc2)[C@H](O)C[C@@H]1O` [Bimatoprost], the “release rate order over time” value [1] is reported as “essentially a zero-order and/or a steady state elution rate”, the “level of Bimatoprost in the aqueous humor, elution order” value ([2]; low dose (Grp 1), mid-dose (Grp 2), high dose (Grp 3), study period about one hundred thirteen days) is reported as “zero-order elution rate” and the “mean measurements of Bimatoprost in the aqueous humor versus dose” value ([2]; low, mid and high dose groups, sampled in ng/mL) is reported as “increased with the higher doses”.

— patent US12285357B2, “Intraocular drug delivery systems and methods of use” (SpyGlass Pharma, Inc., priority 2022, dated 2025)
